Measured values taken from publication PMC1779548, “Antihuman Immunodeficiency Virus Type 1 (HIV-1) Activity of Rare Earth Metal Complexes of 4-Hydroxycoumarins in Cell Culture” (Bioinorganic Chemistry and Applications, 2006).

Experiments:
[1] = test system: HIV-1LAI; assay: Microtiter infection assay (neutral red uptake), acute infection of MT-2 cells; assay type: cell-based; conditions: for Inhibition (%): 2.5 μM, HIV-1LAI infected MT-2 cells; for anti-HIV potency (in words): MT-2/HIV-1, at or under MNC
Description: As a source of HIV-1, the supernatant of H9/HTLV III B cell line was used. The supernatants were collected and centrifuged to remove the cells, and virus stocks were prepared with known p24 antigen content, RT activity and infectivity. MT-2 cells were infected with HIV-1 (multiplicity of infection ≥ 1) in suspension (37°C/5% CO2) and then grown parallely with uninfected ones for 72 hours.
CC50 and MNC were detected by neutral red uptake assay. IC50 was studied on MT-2 cells by microtiter infection assay using neutral red uptake. Briefly, the experimental procedure under conditions of acute infection was performed in 96-well microplates in the following sequence:
(§1) • 100 μL MT-2 cells (4–5 × 10 ^4 cells); • 50 μL HIV-1 (undiluted or in the appropriate dilution to obtain multiplicity of infection ≥ 1); contact (2 hours at 37°C/5% CO2); when CC50 and MNC were detected, growth medium instead of virus has been added; • 50 μL sample of substance tested starting from 4× MNC (because this volume is 1/4 of the whole volume in the well) and 2- or 10-fold dilutions in growth medium.
(§2) The cells were incubated for 72 hours and then 100 μL of them were removed to another 96-well plate previously treated for an hour with 50 μg/mL poly-L-lysine (PLL) in volume 100 μL. A solution of 100 μL per well of neutral red in growth medium (0.016%) was added and the cells were incubated for 2 hours at 37°C/5% CO2. Neutral red dye was extracted by acidified alcohol (50% ethanol in 1% acetic acid) and measured colorimetrically at 540 nm. Each plate contained 8 cell control wells (no virus, no substance) for all kinds of experiments. When IC50 was detected, a row of 8 viral controls (plus virus, no substance) and rows of 8 experimental wells (plus virus, different dilutions of the substance) were performed. The values of optical density at 540 nm (OD540) were averaged for each row and the mean values of experimental and control rows were compared. As far as the ligands and their complexes were DMSO soluble, the appropriate controls of DMSO and DMSO + HIV-1 in growth medium were always considered.

[2] = test system: HIV-1; conditions: at MNC, 72 h incubation, supernatants of HIV-1 infected MT-2 cells, averaged after at least 3 experiments
Description: Endogenous RT activity of supernatants of HIV-1 infected MT-2 cells treated/untreated with complexes and ligands was tested by HS-Lenti Kit-RT assay (Cavidi, Sweden). The kit contained recombinant RT (rRT) as a standard which made possible quantitation of the RT in the sample. The method is nonradioactive and colorimetrically detects RT activity product (DNA) at 405 nm (OD405) [3].

[3] = test system: MT-2 cells; assay: in vitro; assay type: cell-based; conditions: for CC50 / MNC (maximal nontoxic concentration) / MNC higher compared to La(1) and the ligand (1): MT-2 cells; for CC50 / MNC (maximal nontoxic concentration): neutral red uptake, 72 h; for MNC higher compared to La(1) and the ligand (1): ratio of MNC
From the text: (§3) The following cell lines were used: H9/HTLV III B—chronically infected with HIV-1LAI cells, kindly provided by Professor R. Gallo, and MT-2 uninfected human lymphoblastoid cells, HTLV-I transformed. The cells were maintained in RPMI 1640 plus 10% FCS.
(§4) The following parameters were studied: cytotoxic concentration 50—CC50 (concentration […] death of 50% of MT-2 cells), maximal nontoxic concentration—MNC (the highest concentration causing no cytotoxicity), and inhibitory concentration 50–IC50 (concentration inhibiting by 50% the viral replication). CC50 and MNC were detected by neutral red uptake assay. IC50 was studied on MT-2 cells by microtiter infection assay using neutral red uptake. Briefly, the experimental procedure under conditions of acute infection was performed in 96-well microplates in the following sequence:
as §1, §2

[4] = test system: H9/HTLV III B cells chronically producing HIV-1LAI; assay: Chronic infection: RT activity in supernatants of treated H9/HTLV III B cells; assay type: cell-based
Description: (§5) The effect of the compounds was also studied under conditions of chronic infection using productively HIV-infected cells (H9/HTLV III B). The production of infectious virions was measured again using the cytopathic effect of supernatants on MT-2 cells as described above.
(§6) To address further the target of HIV inhibition especially by La(W), a study of this complex for effect on late stages of HIV-1 life cycle (protease, budding, assembly) was carried out. To do this, we treated H9/HTLV III B cells—chronically producing HIV-1—with La(W) at 3 concentrations, starting from MNC. Also, 10× dilution of Indinavir was used as a reference for antiprotease effect. Table 7 represents the results for the effect of La(W) in 3 concentrations on late stages of HIV replication.

[5] = test system: H9/HTLV III B cells chronically producing HIV-1LAI; assay: Chronic infection: microtiter infection assay on MT-2 cells with supernatants of treated H9/HTLV III B cells; assay type: cell-based; conditions: undiluted supernatant on MT-2 cells
Description: as §5, §6

[6] = in vitro; assay type: cell-based; conditions: MT-2 cells, neutral red uptake, 72 h
From the text: as §3, §4, §1, §2

Compound	Inhibition (%) ([1]; 72 h incubation)	anti-HIV potency (in words) [1]	HIV inhibition (%) Endogenous RT activity [2]	CC50 [3] [µM]	MNC (maximal nontoxic concentration) [3]	MNC higher compared to La(1) and the ligand (1) [3]	CC50 at 72 h [6] [µM]	further results
O.O=c1oc2ccccc2c([O-])c1C(c1ccccc1)c1c([O-])c2ccccc2oc1=O.[Nd+3].[OH-] [Nd(1)]	10,4%	limited anti-HIV potency	∼ 1%	125	2.5 µM	10–50 times		HIV inhibition (%) Microtiter infection assay ([1]; at MNC, 72 h incubation, MT-2 cells, averaged after at least 3 experiments): 10.4%; lower cytotoxicity compared to the other lanthanides and the ligand (1) ([3]; ratio of CC50, MT-2 cells): at least 5 times
CC(C)(C)NC(=O)[C@@H]1CN(Cc2cccnc2)CCN1C[C@@H](O)C[C@@H](Cc1ccccc1)C(=O)N[C@H]1c2ccccc2C[C@H]1O [Indinavir]								RT activity of SNs OD405 ([4]; 0.05 μM): 1.454 OD405; RT activity of SNs OD405 ([4]; 0.5 μM): 1.400 OD405; RT activity of SNs OD405 ([4]; 5 μM): 1.154 OD405; RT activity of SNs OD405 ([4]; 50 μM): 0.903 OD405; Microtiter infection assay OD540 ([5]; 0.05 μM): 0.739 OD540; Microtiter infection assay OD540 ([5]; 0.5 μM): 0.633 OD540; Microtiter infection assay OD540 ([5]; 5 μM): 0.520 OD540; Microtiter infection assay OD540 ([5]; 50 μM): 0.375 OD540
O.O=c1oc2ccccc2c([O-])c1C(c1ccccc1)c1c([O-])c2ccccc2oc1=O.[La+3].[OH-] [La(1)]				25	0,25 μM			
O=c1oc2ccccc2c(O)c1C(c1ccccc1)c1c(O)c2ccccc2oc1=O [(1), 3,3′-benzylidenebis[4-hydroxycoumarin]]					0,25 μM		25	
CC(=O)CC(c1ccccc1)c1c(O)c2ccccc2oc1=O (centres unmarked) [(W), 4-hydroxy-3-(3-oxo-1-phenylbutyl)-2H-1-benzopyran-2-one, reference compound]			∼ 1%		25 µM		250	
O.O.O=c1oc2ccccc2c([O-])c1C(c1ccccc1)c1c([O-])c2ccccc2oc1=O.[Ce+3].[OH-] [Ce(1)]	8,7%	limited anti-HIV potency	∼ 1%	25	12,5 μM	10–50 times		
